Data on 8 compounds can be found in paper PMC3253716 (Journal of Enzyme Inhibition and Medicinal Chemistry, 2010).

Entries after “also recorded” stand apart in the source; their conditions may differ.

Assay [1] concerns the target T1, recombinant mouse acetylcholinesterase (rMAChE) (Mus musculus, UniProt P21836).
T1 sequence (P21836 with tags, fused parts or gaps limits assumed): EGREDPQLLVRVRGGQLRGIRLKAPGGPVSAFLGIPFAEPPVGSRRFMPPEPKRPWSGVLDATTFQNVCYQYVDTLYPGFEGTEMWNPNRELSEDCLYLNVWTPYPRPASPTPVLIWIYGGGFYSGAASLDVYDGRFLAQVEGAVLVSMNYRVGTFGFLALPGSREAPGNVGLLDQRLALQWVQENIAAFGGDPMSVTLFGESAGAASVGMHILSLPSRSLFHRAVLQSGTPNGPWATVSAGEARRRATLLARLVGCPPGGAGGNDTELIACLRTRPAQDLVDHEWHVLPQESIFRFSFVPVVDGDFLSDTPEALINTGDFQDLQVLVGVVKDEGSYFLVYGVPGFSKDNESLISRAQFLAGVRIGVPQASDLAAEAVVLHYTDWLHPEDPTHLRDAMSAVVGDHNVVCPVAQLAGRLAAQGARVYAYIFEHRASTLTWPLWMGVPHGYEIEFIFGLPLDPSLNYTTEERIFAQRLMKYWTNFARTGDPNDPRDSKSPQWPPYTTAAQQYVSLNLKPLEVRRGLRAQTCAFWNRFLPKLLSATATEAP
Description: Colorimetric. It counts as biochemical. Conditions: tested at 50 µM.

For assay [2], the target named is electric eel acetylcholinesterase (EEAChE) (Electrophorus electricus, UniProt O42275). Description: Colorimetric. It counts as biochemical. Conditions: tested at 50 µM.
Chain of electric eel acetylcholinesterase (EEAChE) (O42275 24-633): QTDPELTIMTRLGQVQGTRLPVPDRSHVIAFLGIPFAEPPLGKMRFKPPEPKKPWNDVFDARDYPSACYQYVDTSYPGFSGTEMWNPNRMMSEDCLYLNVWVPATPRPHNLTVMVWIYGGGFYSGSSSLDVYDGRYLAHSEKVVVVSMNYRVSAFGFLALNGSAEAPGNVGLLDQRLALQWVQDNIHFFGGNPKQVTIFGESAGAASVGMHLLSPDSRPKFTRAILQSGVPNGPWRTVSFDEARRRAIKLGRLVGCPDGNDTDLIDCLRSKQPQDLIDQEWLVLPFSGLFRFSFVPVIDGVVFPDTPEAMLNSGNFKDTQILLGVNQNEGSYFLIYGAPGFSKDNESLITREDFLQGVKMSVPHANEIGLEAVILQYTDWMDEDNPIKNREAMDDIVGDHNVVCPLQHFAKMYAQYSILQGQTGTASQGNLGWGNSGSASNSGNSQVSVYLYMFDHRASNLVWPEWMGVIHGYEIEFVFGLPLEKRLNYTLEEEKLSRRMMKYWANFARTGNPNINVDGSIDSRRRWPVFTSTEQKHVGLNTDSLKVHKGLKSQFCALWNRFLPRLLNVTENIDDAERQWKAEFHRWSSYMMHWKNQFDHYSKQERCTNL
Assay [3] has as its target T2, EEAChE (Electrophorus electricus, UniProt O42275). Conditions: read-out: IC50 against EEAChE; competitive inhibition; cited from earlier work.
Assay [4] addresses T2, EEAChE. Conditions: Lineweaver–Burk plot.

T2 sequence (O42275 24-633): as above

With “9-[2(or 4)-[[[-[-N-Propynylsulfonamide]-4(or 2)-sulfophenyl]-2,3,6,7,12,13,16,17–octahydro-1H, 5H, 11H, 15H-xantheno[2,3,4-ij:5,6,7i′j′]-diquinolizium-18-inner salt [Compound 7]”, the “Inhibition of rMAChE (in words)” value is recorded as “reversibly inactivate” in assay [1] and “inhibited” in assay [1] (listed as Texas Red). In addition, the “Inhibition of EEAChE (in words)” value in assay [2] was “reversibly inactivate”; in assay [2] (listed as Texas Red), “inhibited”.

As to `C#CCNS(=O)(=O)c1cccc2c(N(C)C)cccc12` [Compound 1, 5-(Dimethylamino)-N-(-2-propynyl)-1-naphthalenesulfonamide], in assay [1] (listed as dansyl), the “Inhibition of rMAChE (in words)” value is “not inhibitors; also recorded: inactive”. For the same compound, the “Inhibition of EEAChE (in words)” value in assay [2] (listed as dansyl) was “not inhibitors; also recorded: inactive”.

In the case of `C#CCNS(=O)(=O)c1ccc2ccc3cccc4ccc1c2c34` [Compound 2, 1-N-(-2-Propynyl)-pyrenesulfonamide], in assay [1], the “Inhibition of rMAChE (in words)” value was “inactive”. In assay [2], the “Inhibition of EEAChE (in words)” value was “inactive”.

As for `C#CCNS(=O)(=O)c1ccc(N=Nc2ccc(N(C)C)cc2)cc1` [Compound 3, 4-(4-Dimethylamino-phenylazo)-N-prop-2-ynyl benzenosulfonamide], in assay [1] (listed as dabsyl), the “Inhibition of rMAChE (in words)” value was “not inhibitors; also recorded: inactive”. For the same compound, in assay [2] (listed as dabsyl), the “Inhibition of EEAChE (in words)” value is “not inhibitors; also recorded: inactive”.

With `C#CCNC(=O)c1cc2ccc(N(CC)CC)cc2oc1=O` [Compound 4, 2H-1-Benzopyran-7-N-diethyl-2-oxo-3-propynylcarboxylamide], the entries for the “Inhibition of rMAChE (in words)” value in assay [1] and in assay [1] (listed as diethylaminocoumarin) were “inhibited” and “some inhibitory ability”, respectively. The “Inhibition of EEAChE (in words)” value in assay [2] was “not an inhibitor”.

`C#CCNC(=O)c1cc2ccc(OC)cc2oc1=O` [Compound 5, 2H-1-Benzopyran-7-methoxy-2-oxo-3-N-propynylcarboxylamide]: the “Inhibition of rMAChE (in words)” value in assay [1] (listed as methoxycoumarin) was “not inhibitors; also recorded: inactive”. Also, the “Inhibition of EEAChE (in words)” value in assay [2] (listed as methoxycoumarin) was “not inhibitors; also recorded: inactive”.

The term IC50 denotes the concentration that gives 50% inhibition. With `c1cc2ccc3cccc4ccc(c1)c2c34` [pyrene], on EEAChE [3], the IC50 was 5.22 µM.

For the compound “Xanthylium, 9-[-2-sulfophenyl]-3,6-bis(diethylamino)-4-sulfonamide [Compound 6]”, the Type of inhibition entry at EEAChE [4] was “mixed-type competitive and noncompetitive inhibition”. For the same compound, the results for the “Inhibition of rMAChE (in words)” value in assay [1] and in assay [1] (listed as Lissamine) were “reversibly inactivate” and “inhibited”, respectively. The entries for the “Inhibition of EEAChE (in words)” value in assay [2] and in assay [2] (listed as Lissamine) were “reversibly inactivate” and “inhibited”, respectively.
